# Experimental data as given in ChEMBL document CHEMBL5532661, “Discovery of a Novel Glucagon-like Peptide-1 (GLP-1) Analogue from Bullfrog and Investigation of Its Potential for Designing GLP-1-Based Multiagonists” (J Med Chem, 2024).
# The source made the active and inactive calls. The rule behind the calls is not given here. Numbered stars: 1 amine (or outer) side, 2 acyl side, 3 side chain; on linkers, the order of the positions; unused ones are H or OH. Square brackets hold non-standard residues; d marks the D form. Side chains are listed from the residue outwards. Peptide text beside a SMILES is read from it. * marks the point of attachment. C18 diacid = O=C(O)CCCCCCCCCCCCCCCCC(=O)*; γGlu = O=C(O)[C@H](CCC(=O)[*:2])N[*:1]; AEEA = NCCOCCOCC(=O)O; Aib = CC(C)(N)C(=O)O
# Assays:
# [1] = molecular target: T1, Glucagon-like peptide 1 receptor (Homo sapiens, UniProt P43220); assay: Agonist activity at human GLP-1 receptor expressed in HEK293 cells assessed as cAMP level measured after 60 mins by HTRF based assay; assay type: functional, cell-based
# T1 sequence (P43220 whole entry): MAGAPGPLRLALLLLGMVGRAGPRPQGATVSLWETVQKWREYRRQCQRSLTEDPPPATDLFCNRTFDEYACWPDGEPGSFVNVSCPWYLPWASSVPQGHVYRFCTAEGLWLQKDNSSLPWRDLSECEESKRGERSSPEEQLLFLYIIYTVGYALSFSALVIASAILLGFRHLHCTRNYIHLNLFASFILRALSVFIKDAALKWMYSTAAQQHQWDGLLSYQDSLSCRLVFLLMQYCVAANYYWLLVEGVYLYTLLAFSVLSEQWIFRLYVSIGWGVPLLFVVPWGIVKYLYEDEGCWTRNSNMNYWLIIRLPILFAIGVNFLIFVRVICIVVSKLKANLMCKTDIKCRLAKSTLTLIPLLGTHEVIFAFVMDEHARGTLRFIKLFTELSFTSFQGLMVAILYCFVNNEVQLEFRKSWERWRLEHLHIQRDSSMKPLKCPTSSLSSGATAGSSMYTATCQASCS
# [2] = molecular target: T1, Glucagon-like peptide 1 receptor; assay: Agonist activity at human GLP-1 receptor expressed in HEK293 cells assessed as cAMP level by measuring relative percent (GLP-1 EC50/compound EC50) measured after 60 mins by HTRF based assay relative to GLP-1; assay type: functional, cell-based; settings: filed as agonist
# Glucagon receptor [3] = molecular target: T2, Glucagon receptor (Homo sapiens, UniProt P47871); assay: Agonist activity at human GCGR expressed in HEK293 cells assessed as cAMP level measured after 60 mins by HTRF based assay; assay type: functional, cell-based
# T2 sequence (P47871 whole entry): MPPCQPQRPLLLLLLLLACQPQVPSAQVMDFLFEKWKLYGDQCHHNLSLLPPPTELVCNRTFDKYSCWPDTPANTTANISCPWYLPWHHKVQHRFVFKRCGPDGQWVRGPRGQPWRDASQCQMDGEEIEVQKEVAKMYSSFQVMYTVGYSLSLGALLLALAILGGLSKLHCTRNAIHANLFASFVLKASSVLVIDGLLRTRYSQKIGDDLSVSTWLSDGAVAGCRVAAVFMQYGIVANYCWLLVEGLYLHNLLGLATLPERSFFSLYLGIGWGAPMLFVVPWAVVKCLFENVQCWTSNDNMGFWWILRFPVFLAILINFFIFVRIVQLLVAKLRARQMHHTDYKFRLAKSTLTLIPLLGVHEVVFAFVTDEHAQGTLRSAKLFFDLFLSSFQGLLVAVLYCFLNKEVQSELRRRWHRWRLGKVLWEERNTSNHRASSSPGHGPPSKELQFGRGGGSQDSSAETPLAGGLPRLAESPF
# Glucagon receptor [4] = molecular target: T2, Glucagon receptor; assay: Agonist activity at human GCGR expressed in HEK293 cells assessed as cAMP level by measuring relative percent (glucagon EC50/compound EC50) measured after 60 mins by HTRF based assay relative to glucagon; assay type: functional, cell-based; settings: filed as agonist
# [5] = molecular target: T3, Gastric inhibitory polypeptide receptor (Homo sapiens, UniProt P48546); assay: Agonist activity at human GIPR receptor expressed in HEK293 cells assessed as cAMP level measured after 60 mins by HTRF based assay; assay type: functional, cell-based
# T3 sequence (P48546 whole entry): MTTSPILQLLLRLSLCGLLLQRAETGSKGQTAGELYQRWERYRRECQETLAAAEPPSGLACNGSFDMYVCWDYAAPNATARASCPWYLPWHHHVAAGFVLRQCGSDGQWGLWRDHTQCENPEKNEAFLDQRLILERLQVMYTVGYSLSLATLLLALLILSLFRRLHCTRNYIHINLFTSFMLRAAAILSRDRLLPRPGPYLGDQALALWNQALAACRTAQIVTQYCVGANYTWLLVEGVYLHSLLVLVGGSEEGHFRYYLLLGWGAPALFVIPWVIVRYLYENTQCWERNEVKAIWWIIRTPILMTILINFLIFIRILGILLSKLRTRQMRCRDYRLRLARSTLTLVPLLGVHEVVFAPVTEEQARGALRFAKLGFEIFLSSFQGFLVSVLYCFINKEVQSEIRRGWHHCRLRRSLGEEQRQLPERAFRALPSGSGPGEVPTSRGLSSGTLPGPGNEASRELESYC
# [6] = molecular target: T4, Gastric inhibitory polypeptide receptor (Homo sapiens) (UniProt P48546); assay: Agonist activity at human GIPR receptor expressed in HEK293 cells assessed as cAMP level by measuring relative percent (GIP EC50/compound EC50) measured after 60 mins by HTRF based assay relative to GIP; assay type: functional, cell-based
# T4 sequence (whole entry): T3 sequence (P48546 whole entry)
# [7] = molecular target: T5, Glucagon-like peptide 1 receptor (Mus musculus) (UniProt O35659); assay: Potency index, ratio of GLP-1 EC50 to test compound EC50 for agonist activity at mouse GLP-1 receptor expressed in HEK293 cells assessed as cAMP level measured after 60 mins by HTRF based assay; assay type: functional, cell-based; settings: filed as agonist
# T5 sequence (whole entry): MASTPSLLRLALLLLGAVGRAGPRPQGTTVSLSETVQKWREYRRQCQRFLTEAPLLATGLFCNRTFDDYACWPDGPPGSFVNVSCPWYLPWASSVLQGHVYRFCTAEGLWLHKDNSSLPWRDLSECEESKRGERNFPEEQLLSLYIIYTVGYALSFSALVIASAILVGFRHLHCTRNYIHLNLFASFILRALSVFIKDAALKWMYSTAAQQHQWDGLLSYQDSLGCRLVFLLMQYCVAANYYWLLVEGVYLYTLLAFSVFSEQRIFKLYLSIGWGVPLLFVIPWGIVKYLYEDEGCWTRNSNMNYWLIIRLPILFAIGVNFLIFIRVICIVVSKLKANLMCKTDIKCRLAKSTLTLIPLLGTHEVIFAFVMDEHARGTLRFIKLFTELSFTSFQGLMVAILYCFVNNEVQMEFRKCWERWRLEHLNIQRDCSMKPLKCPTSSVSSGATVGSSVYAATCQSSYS
# [8] = molecular target: T5, Glucagon-like peptide 1 receptor (Mus musculus); assay: Agonist activity at mouse GLP-1 receptor expressed in HEK293 cells assessed as cAMP level measured after 60 mins by HTRF based assay; assay type: functional, cell-based; settings: filed as agonist
# [9] = molecular target: Glucagon receptor (Mus musculus) (UniProt Q61606); assay: Agonist activity at mouse GCGR receptor expressed in HEK293 cells assessed as cAMP level measured after 60 mins by HTRF based assay; assay type: functional, cell-based; settings: filed as agonist
# Sequence of Glucagon receptor (Mus musculus) (Q61606 whole entry): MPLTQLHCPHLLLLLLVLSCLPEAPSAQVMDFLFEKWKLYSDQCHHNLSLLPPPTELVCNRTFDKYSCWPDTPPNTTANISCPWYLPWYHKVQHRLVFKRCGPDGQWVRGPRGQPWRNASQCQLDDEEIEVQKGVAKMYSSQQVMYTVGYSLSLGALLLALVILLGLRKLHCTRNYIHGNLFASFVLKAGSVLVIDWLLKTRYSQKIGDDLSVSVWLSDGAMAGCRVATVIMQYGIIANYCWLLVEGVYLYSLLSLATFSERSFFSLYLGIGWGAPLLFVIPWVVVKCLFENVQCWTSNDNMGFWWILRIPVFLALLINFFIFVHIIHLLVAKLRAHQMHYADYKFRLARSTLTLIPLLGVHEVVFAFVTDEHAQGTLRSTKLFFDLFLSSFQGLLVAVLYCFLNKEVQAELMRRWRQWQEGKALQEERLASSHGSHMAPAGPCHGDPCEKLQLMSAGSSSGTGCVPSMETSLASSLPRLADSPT
# [10] = molecular target: Glucagon receptor (Mus musculus) (UniProt Q61606); assay: Potency index, ratio of glucagon EC50 to test compound EC50 for agonist activity at mouse GCGR expressed in HEK293 cells assessed as cAMP level measured after 60 mins by HTRF based assay; assay type: functional, cell-based; settings: filed as agonist
# Mus musculus [11] = assay: Hypoglycemic effect in ICR mouse treated with 3 g/kg glucose assessed as reduction in blood glucose level at 10 nmol/kg, sc measured upto 120 mins by acute glucose lowering test; assay type: functional, organism-based
# Mus musculus [12] = assay: Hypoglycemic effect in ICR mouse treated with 3 g/kg glucose assessed as reduction in blood glucose level at 100 nmol/kg, sc measured upto 120 mins by acute glucose lowering test; assay type: functional, organism-based
# Mus musculus [13] = assay: Hypoglycemic effect in ICR mouse treated with 3 g/kg glucose assessed as reduction in blood glucose level at 30 nmol/kg, sc measured upto 120 mins pretreated with GLP-1R and GIPR antagonist by OGTT; assay type: functional, organism-based
# Mus musculus [14] = assay: Anorexigenic effect in ICR mouse assessed as decrease in food intake at 30 nmol/kg, sc measured upto 72 hrs by acute food intake study; assay type: functional, organism-based
# Mus musculus [15] = assay: Anorexigenic effect in ICR mouse assessed as decrease in food intake at 10 nmol/kg, sc measured upto 72 hrs by acute food intake study; assay type: functional, organism-based
# Mus musculus [16] = assay: Anorexigenic effect in sc dosed ICR mouse assessed as decrease in food intake measured upto 72 hrs by acute food intake study; assay type: functional, organism-based; settings: dose 10-100 nmol/kg
# Mus musculus [17] = assay: Antihyperglycemic effect in DIO mouse assessed as antihyperglycemic duration by measuring blood glucose at 30 nmol/kg, sc measured after 48 hrs by hypoglycemic duration assay; assay type: functional, organism-based
# Mus musculus [18] = assay: Antihyperglycemic effect in DIO mouse assessed as antihyperglycemic duration by measuring blood glucose at 30 nmol/kg, sc administered twice daily measured by hypoglycemic duration assay; assay type: functional, organism-based
# Mus musculus [19] = assay: Antihyperglycemic effect in DIO mouse assessed as prolonged antihyperglycemic duration by measuring blood glucose at 100 nmol/kg, sc; assay type: functional, organism-based
# Mus musculus [20] = assay: Reduction in body weight in DIO mouse at 30 nmol/kg, sc treated every 2 and half day once measured after 21 days; assay type: functional; parameters: scale not given: the % may be the effect or the level left; settings: time 21 day
# Mus musculus [21] = assay: Reduction in feed intake in DIO mouse at 30 nmol/kg, sc treated twice a day measured after 21 days; assay type: functional, organism-based; settings: time 21.0 day
# Mus musculus [22] = assay: Reduction in blood glucose level in non-fasting DIO mouse at 30 nmol/kg, sc treated every 2 and half day once measured after 21 days by glucose tolerance test; assay type: functional, organism-based; settings: time 21.0 day
# Mus musculus [23] = assay: Reduction in total fat mass in DIO mouse at 30 nmol/kg, sc treated every 2 and half day once measured after 21 days; assay type: functional, organism-based; settings: time 21.0 day
# Mus musculus [24] = assay: Reduction in serum triglyceride in DIO mouse at 30 nmol/kg, sc treated every 2 and half day once measured after 21 days; assay type: functional, organism-based; settings: time 21.0 day
# Mus musculus [25] = assay: Reduction in total cholesterol in DIO mouse at 30 nmol/kg, sc treated every 2 and half day once measured after 21 days; assay type: functional, organism-based; settings: time 21.0 day
# Mus musculus [26] = assay: Reduction in serum AST in DIO mouse at 30 nmol/kg, sc treated every 2 and half day once measured after 21 days; assay type: functional, organism-based; settings: time 21.0 day
# Mus musculus [27] = assay: Reduction in serum ALT in DIO mouse at 30 nmol/kg, sc treated every 2 and half day once measured after 21 days; assay type: functional, organism-based; settings: time 21.0 day
# Mus musculus [28] = assay: Reduction in hepatic lipid content in DIO mouse at 30 nmol/kg, sc treated every 2 and half day once measured after 21 days by H and E staining based assay; assay type: functional, organism-based; settings: time 21.0 day
structure (smiles),measurement,setting,value
CC[C@H](C)[C@H](NC(=O)[C@H](CCCCNC(=O)COCCOCCNC(=O)COCCOCCNC(=O)CC[C@H](NC(=O)CCCCCCCCCCCCCCCCC(=O)O)C(=O)O)NC(=O)[C@H](CCC(=O)O)NC(=O)[C@H](CC(C)C)NC(=O)[C@H](C)NC(=O)[C@H](CCCNC(=N)N)NC(=O)[C@H](CO)NC(=O)[C@H](CCSC)NC(=O)[C@H](CC(=O)O)NC(=O)[C@H](CO)NC(=O)[C@@H](NC(=O)[C@H](Cc1ccccc1)NC(=O)[C@@H](NC(=O)CNC(=O)[C@H](CCC(N)=O)NC(=O)C(C)(C)NC(=O)[C@@H](N)Cc1c[nH]cn1)[C@@H](C)O)[C@@H](C)O)C(=O)N[C@@H](C)C(=O)N[C@@H](C)C(=O)N[C@@H](CCCNC(=N)N)C(=O)N[C@@H](CC(C)C)C(=O)N[C@@H](Cc1ccccc1)C(=O)N[C@H](C(=O)N[C@@H](CC(=O)O)C(=O)N[C@@H](Cc1c[nH]c2ccccc12)C(=O)N[C@@H](CC(C)C)C(=O)N[C@H](C(=O)N[C@@H](CCC(=O)O)C(=O)NCC(=O)NCC(=O)N1CCC[C@H]1C(=O)N[C@@H](CO)C(=O)N[C@@H](CO)C(=O)NCC(=O)N[C@@H](C)C(=O)N1CCC[C@H]1C(=O)N1CCC[C@H]1C(=O)N1CCC[C@H]1C(=O)N[C@@H](CO)C(N)=O)[C@@H](C)CC)C(C)C (H-H[Aib]QGTFTSDMSRALEK([AEEA-AEEA-γGlu-C18 diacid])IAARLFVDWLIEGGPSSGAPPPS-NH2),EC50,[1],0.012 nM
same,Activity,[2],442%
same,EC50,Glucagon receptor [3],0.13 nM
same,Activity,Glucagon receptor [4],71%
same,EC50,[5],0.6 nM
same,Activity,[6],4%
same,Ratio EC50,[7],1
same,Activity,[8],Active
same,Activity,[9],Active
same,Ratio EC50,[10],1
same,Activity,Mus musculus [11],Active
same,Activity,Mus musculus [12],Active
same,Activity,Mus musculus [13],inactive
same,Activity,Mus musculus [14],Active
same,Activity,Mus musculus [15],Active
same,Activity,Mus musculus [16],Dose-Dependent Effect
same,Activity,Mus musculus [17],Active
same,Activity,Mus musculus [18],Active
same,Activity,Mus musculus [19],Active
same,Activity,Mus musculus [20],40.7%
same,Activity,Mus musculus [21],Active
same,Activity,Mus musculus [22],Active
same,Activity,Mus musculus [23],Active
same,Activity,Mus musculus [24],Active
same,Activity,Mus musculus [25],Active
same,Activity,Mus musculus [26],Active
same,Activity,Mus musculus [27],Active
same,Activity,Mus musculus [28],Active
